Reference: the NIST ThermoML archive (doi:10.1021/je0601457)
± gives the expanded uncertainty stated by the source.

Test: xn = mol fraction of the nth substance listed

Cc1nccnc1C [2,3-dimethylpyrazine] + O=C=O
Fluid (supercritical or subcritical phases), Linear displacement technique
Conditions | mass density [kg/m3]
328.55 K, 14100 kPa, x1 = 0.291 | 857 ± 34
328.55 K, 15620 kPa, x1 = 0.01 | 757 ± 31
328.55 K, 16930 kPa, x1 = 0.291 | 859 ± 34
329.65 K, 6660 kPa, x1 = 0.565 | 912 ± 36
329.65 K, 8240 kPa, x1 = 0.565 | 914 ± 37
329.65 K, 14590 kPa, x1 = 0.565 | 919 ± 37
329.75 K, 12170 kPa, x1 = 0.033 | 656 ± 27
329.75 K, 12970 kPa, x1 = 0.033 | 684 ± 28
329.75 K, 14310 kPa, x1 = 0.033 | 713 ± 29
329.75 K, 16930 kPa, x1 = 0.033 | 765 ± 31
329.85 K, 12860 kPa, x1 = 0.108 | 845 ± 36
329.85 K, 14590 kPa, x1 = 0.108 | 855 ± 34
329.85 K, 19000 kPa, x1 = 0.108 | 879 ± 35
330.35 K, 11790 kPa, x1 = 0.157 | 902 ± 39
330.35 K, 14240 kPa, x1 = 0.157 | 919 ± 37
330.35 K, 17550 kPa, x1 = 0.157 | 937 ± 38
331.65 K, 11550 kPa, x1 = 0.086 | 645 ± 26
331.65 K, 12210 kPa, x1 = 0.057 | 762 ± 32
331.65 K, 12830 kPa, x1 = 0.057 | 785 ± 33
331.65 K, 14030 kPa, x1 = 0.086 | 676 ± 28
331.65 K, 15620 kPa, x1 = 0.086 | 689 ± 28
331.65 K, 19380 kPa, x1 = 0.057 | 886 ± 36
332.85 K, 12790 kPa, x1 = 0.049 | 767 ± 32
332.85 K, 14620 kPa, x1 = 0.049 | 811 ± 33
332.85 K, 15690 kPa, x1 = 0.049 | 834 ± 35
333.95 K, 5520 kPa, x1 = 0.736 | 855 ± 34
333.95 K, 12830 kPa, x1 = 0.736 | 858 ± 34
333.95 K, 19520 kPa, x1 = 0.736 | 858 ± 34
335.15 K, 12970 kPa, x1 = 0.027 | 605 ± 28
335.15 K, 13550 kPa, x1 = 0.027 | 633 ± 28
335.15 K, 14590 kPa, x1 = 0.027 | 668 ± 29
338.75 K, 11790 kPa, x1 = 0.184 | 860 ± 34
338.75 K, 14170 kPa, x1 = 0.184 | 874 ± 35
338.75 K, 16720 kPa, x1 = 0.184 | 886 ± 35
340.75 K, 12790 kPa, x1 = 0.108 | 786 ± 33
340.75 K, 14030 kPa, x1 = 0.108 | 810 ± 33
340.75 K, 17340 kPa, x1 = 0.108 | 837 ± 34
340.75 K, 20170 kPa, x1 = 0.108 | 858 ± 34
341.25 K, 10790 kPa, x1 = 0.01 | 327 ± 20
341.95 K, 8900 kPa, x1 = 0.433 | 918 ± 37
341.95 K, 12340 kPa, x1 = 0.433 | 926 ± 37
341.95 K, 17480 kPa, x1 = 0.433 | 934 ± 37
341.95 K, 23830 kPa, x1 = 0.433 | 945 ± 38
343.15 K, 13410 kPa, x1 = 0.057 | 679 ± 28
343.15 K, 14660 kPa, x1 = 0.057 | 719 ± 30
343.15 K, 16170 kPa, x1 = 0.057 | 750 ± 31
343.25 K, 14210 kPa, x1 = 0.033 | 585 ± 26
343.25 K, 14930 kPa, x1 = 0.033 | 615 ± 26
343.25 K, 16340 kPa, x1 = 0.033 | 657 ± 28
345.05 K, 14100 kPa, x1 = 0.049 | 698 ± 30
345.05 K, 15410 kPa, x1 = 0.049 | 745 ± 31
345.05 K, 17240 kPa, x1 = 0.049 | 791 ± 32
345.85 K, 15140 kPa, x1 = 0.086 | 626 ± 25
345.85 K, 15900 kPa, x1 = 0.086 | 638 ± 33
347.05 K, 11760 kPa, x1 = 0.291 | 853 ± 34
347.05 K, 14070 kPa, x1 = 0.291 | 855 ± 34
347.05 K, 18860 kPa, x1 = 0.291 | 857 ± 34
347.65 K, 8210 kPa, x1 = 0.565 | 895 ± 36
347.65 K, 11830 kPa, x1 = 0.565 | 901 ± 36
347.65 K, 18520 kPa, x1 = 0.565 | 907 ± 36
347.85 K, 12690 kPa, x1 = 0.184 | 828 ± 33
347.85 K, 13450 kPa, x1 = 0.184 | 837 ± 34
347.85 K, 15690 kPa, x1 = 0.184 | 853 ± 35
348.35 K, 9900 kPa, x1 = 0.433 | 906 ± 36
348.35 K, 15140 kPa, x1 = 0.433 | 917 ± 37
348.35 K, 23070 kPa, x1 = 0.433 | 931 ± 37
350.75 K, 14660 kPa, x1 = 0.108 | 747 ± 30
350.75 K, 15690 kPa, x1 = 0.108 | 766 ± 31
350.75 K, 17410 kPa, x1 = 0.108 | 790 ± 33
352.25 K, 14550 kPa, x1 = 0.057 | 618 ± 26
352.25 K, 16340 kPa, x1 = 0.057 | 678 ± 28
352.25 K, 18760 kPa, x1 = 0.057 | 731 ± 30
354.15 K, 16900 kPa, x1 = 0.157 | 847 ± 35
354.15 K, 19280 kPa, x1 = 0.157 | 865 ± 35
354.15 K, 25210 kPa, x1 = 0.157 | 904 ± 36
355.25 K, 14550 kPa, x1 = 0.049 | 608 ± 28
355.25 K, 15410 kPa, x1 = 0.049 | 652 ± 28
355.25 K, 17280 kPa, x1 = 0.049 | 702 ± 29
357.15 K, 13760 kPa, x1 = 0.433 | 897 ± 36
357.15 K, 17310 kPa, x1 = 0.433 | 905 ± 36
357.15 K, 21970 kPa, x1 = 0.433 | 914 ± 37
358.65 K, 12930 kPa, x1 = 0.291 | 848 ± 34
358.65 K, 15410 kPa, x1 = 0.291 | 852 ± 34
358.65 K, 20590 kPa, x1 = 0.291 | 855 ± 34
360.55 K, 6970 kPa, x1 = 0.736 | 846 ± 34
360.55 K, 11100 kPa, x1 = 0.736 | 850 ± 34
360.55 K, 17970 kPa, x1 = 0.736 | 853 ± 34
362.95 K, 16930 kPa, x1 = 0.086 | 561 ± 25
362.95 K, 17410 kPa, x1 = 0.086 | 574 ± 24
362.95 K, 19410 kPa, x1 = 0.086 | 604 ± 25
365.05 K, 16480 kPa, x1 = 0.057 | 573 ± 24
365.05 K, 18310 kPa, x1 = 0.057 | 636 ± 27
365.05 K, 20170 kPa, x1 = 0.057 | 679 ± 28
365.05 K, 23210 kPa, x1 = 0.057 | 725 ± 29
365.55 K, 19340 kPa, x1 = 0.184 | 818 ± 33
365.55 K, 24520 kPa, x1 = 0.184 | 848 ± 34
365.55 K, 45000 kPa, x1 = 0.184 | 900 ± 37
368.45 K, 17140 kPa, x1 = 0.108 | 690 ± 32
368.45 K, 19480 kPa, x1 = 0.108 | 731 ± 30
368.45 K, 25100 kPa, x1 = 0.108 | 791 ± 32
368.45 K, 34900 kPa, x1 = 0.108 | 848 ± 34
371.85 K, 15900 kPa, x1 = 0.027 | 402 ± 18
371.85 K, 17140 kPa, x1 = 0.027 | 432 ± 21
373.25 K, 16720 kPa, x1 = 0.049 | 558 ± 25
373.25 K, 17900 kPa, x1 = 0.049 | 605 ± 26
373.25 K, 20100 kPa, x1 = 0.049 | 667 ± 28
373.55 K, 9210 kPa, x1 = 0.565 | 867 ± 35
373.55 K, 12380 kPa, x1 = 0.565 | 873 ± 35
373.55 K, 18520 kPa, x1 = 0.565 | 883 ± 35
374.25 K, 17410 kPa, x1 = 0.086 | 507 ± 21
374.25 K, 18100 kPa, x1 = 0.086 | 521 ± 22
374.25 K, 18900 kPa, x1 = 0.086 | 540 ± 23
375.05 K, 18100 kPa, x1 = 0.033 | 466 ± 20
375.05 K, 19410 kPa, x1 = 0.033 | 499 ± 21
375.05 K, 20690 kPa, x1 = 0.033 | 526 ± 22
375.85 K, 20590 kPa, x1 = 0.157 | 805 ± 35
375.85 K, 23340 kPa, x1 = 0.157 | 829 ± 33
375.85 K, 26520 kPa, x1 = 0.157 | 856 ± 34
380.65 K, 12760 kPa, x1 = 0.433 | 852 ± 34
380.65 K, 16100 kPa, x1 = 0.433 | 861 ± 34
380.65 K, 21660 kPa, x1 = 0.433 | 876 ± 35
381.45 K, 15210 kPa, x1 = 0.291 | 831 ± 33
381.45 K, 15690 kPa, x1 = 0.291 | 830 ± 33
381.45 K, 21340 kPa, x1 = 0.291 | 841 ± 34

Liquid, linear displacement
Conditions | mass density [kg/m3]
328.55 K, x1 = 0.291 | 855 ± 34
329.65 K, x1 = 0.565 | 909 ± 36
329.75 K, x1 = 0.033 | 560 ± 23
329.85 K, x1 = 0.108 | 822 ± 33
330.35 K, x1 = 0.157 | 884 ± 35
331.65 K, x1 = 0.057 | 719 ± 29
331.65 K, x1 = 0.086 | 627 ± 25
332.85 K, x1 = 0.049 | 708 ± 28
333.95 K, x1 = 0.736 | 854 ± 34
338.75 K, x1 = 0.184 | 852 ± 34
340.75 K, x1 = 0.108 | 771 ± 31
341.95 K, x1 = 0.433 | 915 ± 37
343.15 K, x1 = 0.057 | 639 ± 26
345.05 K, x1 = 0.049 | 638 ± 26
345.85 K, x1 = 0.086 | 579 ± 23
347.05 K, x1 = 0.291 | 852 ± 34
347.65 K, x1 = 0.565 | 893 ± 36
347.85 K, x1 = 0.184 | 826 ± 33
348.35 K, x1 = 0.433 | 902 ± 36
350.75 K, x1 = 0.108 | 725 ± 29
354.15 K, x1 = 0.157 | 814 ± 33
357.15 K, x1 = 0.433 | 886 ± 35
358.65 K, x1 = 0.291 | 848 ± 34
360.55 K, x1 = 0.736 | 845 ± 34
362.95 K, x1 = 0.086 | 530 ± 22
365.55 K, x1 = 0.184 | 774 ± 32
368.45 K, x1 = 0.108 | 663 ± 27
373.55 K, x1 = 0.565 | 865 ± 35
374.25 K, x1 = 0.086 | 490 ± 21
375.85 K, x1 = 0.157 | 764 ± 31
380.65 K, x1 = 0.433 | 848 ± 34
381.45 K, x1 = 0.291 | 829 ± 33
